Columns and labels:
[1] = target: Sodium-dependent serotonin transporter (Rattus norvegicus) (UniProt P31652); experiment: Inhibition of [3H]serotonin reuptake in rat brain synaptosomes SERT at 10 uM after 15 mins by TopCount scintillation counting method relative to control; type: subcellular
[2] = target: Sodium-dependent serotonin transporter (Rattus norvegicus, UniProt P31652); experiment: Inhibition of [3H]serotonin reuptake in rat brain synaptosomes SERT after 15 mins by TopCount scintillation counting method; type: subcellular
Sodium-dependent serotonin transporter, sequence (P31652 whole entry): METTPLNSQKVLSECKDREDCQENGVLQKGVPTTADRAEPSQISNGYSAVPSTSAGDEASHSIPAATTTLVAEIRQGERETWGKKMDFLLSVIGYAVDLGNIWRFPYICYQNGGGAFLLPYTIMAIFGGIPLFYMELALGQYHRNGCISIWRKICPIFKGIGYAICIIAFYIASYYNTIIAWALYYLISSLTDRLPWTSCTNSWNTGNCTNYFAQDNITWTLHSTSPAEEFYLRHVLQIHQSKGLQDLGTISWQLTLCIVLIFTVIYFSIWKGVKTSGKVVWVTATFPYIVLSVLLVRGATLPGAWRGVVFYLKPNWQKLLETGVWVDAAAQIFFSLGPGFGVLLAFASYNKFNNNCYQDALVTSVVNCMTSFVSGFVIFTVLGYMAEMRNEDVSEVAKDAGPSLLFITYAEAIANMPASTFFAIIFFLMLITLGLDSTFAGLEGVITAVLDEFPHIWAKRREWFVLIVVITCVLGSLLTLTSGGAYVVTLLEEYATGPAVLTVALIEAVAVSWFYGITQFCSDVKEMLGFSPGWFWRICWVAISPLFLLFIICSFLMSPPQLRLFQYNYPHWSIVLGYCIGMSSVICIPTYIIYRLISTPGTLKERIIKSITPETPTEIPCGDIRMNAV

[3] = target: T1, 5-hydroxytryptamine receptor 1A (Homo sapiens) (UniProt P08908); experiment: Displacement of [3H]8-OH-DPAT from recombinant human 5-HT1A receptor expressed in HEK293 cell membranes at 10 uM after 60 mins by TopCount scintillation counting method relative to control
T1 sequence (whole entry): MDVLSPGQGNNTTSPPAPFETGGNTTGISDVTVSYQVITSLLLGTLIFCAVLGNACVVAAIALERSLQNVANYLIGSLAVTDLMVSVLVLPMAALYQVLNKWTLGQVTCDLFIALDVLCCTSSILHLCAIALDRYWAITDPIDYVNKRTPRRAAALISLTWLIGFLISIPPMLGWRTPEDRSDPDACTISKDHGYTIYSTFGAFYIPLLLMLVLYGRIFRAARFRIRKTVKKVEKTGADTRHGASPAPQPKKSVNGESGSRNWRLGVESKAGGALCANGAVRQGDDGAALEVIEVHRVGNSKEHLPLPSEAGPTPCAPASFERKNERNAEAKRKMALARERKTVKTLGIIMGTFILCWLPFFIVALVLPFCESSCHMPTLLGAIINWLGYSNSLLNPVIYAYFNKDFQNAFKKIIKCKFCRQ

[4] = target: T2, 5-hydroxytryptamine receptor 1A (Homo sapiens, UniProt P08908); experiment: Displacement of [3H]8-OH-DPAT from recombinant human 5-HT1A receptor expressed in HEK293 cell membranes after 60 mins by TopCount scintillation counting method
T2 sequence (P08908 whole entry): T1 sequence (whole entry)

[5] = target: T3, 5-hydroxytryptamine receptor 7 (Homo sapiens, UniProt P34969); experiment: Displacement of [3H]LSD from recombinant human 5-HT7 receptor expressed in CHO cell membranes at 10 uM after 120 mins by TopCount scintillation counting method relative to control
T3 sequence (P34969 whole entry): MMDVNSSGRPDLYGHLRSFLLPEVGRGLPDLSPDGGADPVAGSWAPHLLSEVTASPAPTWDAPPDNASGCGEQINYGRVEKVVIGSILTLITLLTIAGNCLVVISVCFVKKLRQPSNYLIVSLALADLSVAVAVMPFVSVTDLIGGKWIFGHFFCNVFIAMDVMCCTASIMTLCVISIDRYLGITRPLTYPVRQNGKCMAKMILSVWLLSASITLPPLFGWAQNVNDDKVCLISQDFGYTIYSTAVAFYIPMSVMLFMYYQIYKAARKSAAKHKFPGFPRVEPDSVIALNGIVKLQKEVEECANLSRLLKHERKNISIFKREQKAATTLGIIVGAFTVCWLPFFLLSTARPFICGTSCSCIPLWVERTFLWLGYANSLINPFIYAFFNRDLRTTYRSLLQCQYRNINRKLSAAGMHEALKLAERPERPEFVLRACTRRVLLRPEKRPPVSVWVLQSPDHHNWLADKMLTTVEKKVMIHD

[6] = target: T3, 5-hydroxytryptamine receptor 7; experiment: Displacement of [3H]LSD from recombinant human 5-HT7 receptor expressed in CHO cell membranes after 120 mins by TopCount scintillation counting method
[7] = Clearance in rat liver microsomes at 1 uM in presence of NADPH by LC-MS/MS analysis; type: ADME, microsome; details: read-out: CLH
Mus musculus [8] = experiment: Antidepressant-like activity in mouse assessed as reduction in immobility time at 20 mg/kg/day, po once daily for 7 days measured for last 4 mins of 6 mins test at 1 hr post last dose by forced swim test relative to control; type: functional; design: scale not given: the % may be the effect or the level left
Mus musculus [9] = experiment: Antidepressant-like activity in po dosed mouse assessed as reduction in immobility time administered once daily for 7 days measured for last 4 mins of 6 mins test at 1 hr post last dose by forced swim test; type: functional, organism-based
[10] = target: Voltage-gated inwardly rectifying potassium channel KCNH2 (Homo sapiens, UniProt Q12809); experiment: Inhibition of human ERG expressed in CHO-K1 cells assessed as reduction in tail current amplitude at -80 mV holding potential after 2 mins by path clamp assay; type: cell-based
Voltage-gated inwardly rectifying potassium channel KCNH2, sequence (Q12809 whole entry): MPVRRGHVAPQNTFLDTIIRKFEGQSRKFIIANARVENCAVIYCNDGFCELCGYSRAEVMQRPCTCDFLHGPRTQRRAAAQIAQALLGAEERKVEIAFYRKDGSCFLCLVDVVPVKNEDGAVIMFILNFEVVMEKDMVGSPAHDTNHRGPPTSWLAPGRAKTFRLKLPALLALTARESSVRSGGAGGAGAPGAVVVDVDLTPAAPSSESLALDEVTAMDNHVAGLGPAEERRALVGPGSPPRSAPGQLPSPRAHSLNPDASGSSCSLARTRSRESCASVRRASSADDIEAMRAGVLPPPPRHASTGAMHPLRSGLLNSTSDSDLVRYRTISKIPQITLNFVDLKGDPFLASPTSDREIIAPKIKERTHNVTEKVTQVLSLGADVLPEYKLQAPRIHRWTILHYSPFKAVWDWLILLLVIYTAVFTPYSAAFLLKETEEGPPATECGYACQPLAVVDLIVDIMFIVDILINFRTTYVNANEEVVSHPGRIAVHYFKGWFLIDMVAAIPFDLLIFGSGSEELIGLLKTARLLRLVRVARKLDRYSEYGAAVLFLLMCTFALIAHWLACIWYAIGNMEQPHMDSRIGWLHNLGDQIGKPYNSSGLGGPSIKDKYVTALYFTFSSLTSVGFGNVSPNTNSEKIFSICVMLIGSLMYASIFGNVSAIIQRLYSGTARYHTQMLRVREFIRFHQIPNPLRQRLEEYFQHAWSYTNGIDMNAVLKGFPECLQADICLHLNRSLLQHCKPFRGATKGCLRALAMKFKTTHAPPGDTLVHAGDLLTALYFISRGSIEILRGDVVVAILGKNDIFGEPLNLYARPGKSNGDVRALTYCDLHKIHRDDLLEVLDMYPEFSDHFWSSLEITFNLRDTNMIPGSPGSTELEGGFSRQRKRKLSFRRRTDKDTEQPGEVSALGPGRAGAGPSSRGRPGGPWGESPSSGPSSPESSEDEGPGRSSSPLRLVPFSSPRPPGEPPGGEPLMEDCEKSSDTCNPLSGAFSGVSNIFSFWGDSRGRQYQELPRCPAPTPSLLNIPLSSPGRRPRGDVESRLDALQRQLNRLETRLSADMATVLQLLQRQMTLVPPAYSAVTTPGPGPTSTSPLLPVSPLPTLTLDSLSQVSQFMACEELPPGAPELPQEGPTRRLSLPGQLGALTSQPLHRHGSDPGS

Mus musculus [11] = experiment: Antidepressant-like activity in po dosed mouse assessed as reduction in immobility time administered once daily for 7 days measured for 5 mins at 1 hr post last dose by tail suspension test; type: functional, organism-based
Mus musculus [12] = experiment: Antidepressant-like activity in mouse assessed as reduction in immobility time at 20 mg/kg/day, po administered once daily for 7 days measured for 5 mins at 1 hr post last dose by tail suspension test relative to control; type: functional; design: scale not given: the % may be the effect or the level left
[13] = AUC (0 to t) in Sprague-Dawley rat at 2 mg/kg, po administered as single dose by LC-MS/MS analysis; type: ADME, organism-based; details: in vivo
[14] = MRT (0 to t) in Sprague-Dawley rat at 2 mg/kg, po administered as single dose by LC-MS/MS analysis; type: ADME, organism-based; details: in vivo
[15] = Apparent volume of distribution during terminal phase in Sprague-Dawley rat at 2 mg/kg, po administered as single dose by LC-MS/MS analysis; type: ADME, organism-based; details: in vivo, read-out: Vz/F
[16] = Apparent clearance during terminal phase in Sprague-Dawley rat at 2 mg/kg, po administered as single dose by LC-MS/MS analysis; type: ADME, organism-based; details: in vivo, read-out: CLz/F (converted)
[17] = Apparent terminal half life in Sprague-Dawley rat at 2 mg/kg, po administered as single dose by LC-MS/MS analysis; type: ADME, organism-based; details: in vivo, read-out: betat1/2(app) (converted)
[18] = Cmax in Sprague-Dawley rat at 2 mg/kg, po administered as single dose by LC-MS/MS analysis; type: ADME, organism-based; design: dose 2 mg/kg, route oral; details: in vivo
[19] = Oral bioavailability in Sprague-Dawley rat at 2 mg/kg administered as single dose by LC-MS/MS analysis; type: ADME, organism-based; details: in vivo
[20] = AUC (0 to t) in Sprague-Dawley rat at 0.5 mg/kg, iv administered as single dose by LC-MS/MS analysis; type: ADME, organism-based; details: in vivo
Rattus norvegicus = experiment: Apparent volume of distribution during terminal phase in Sprague-Dawley rat at 0.5 mg/kg, iv administered as single dose by LC-MS/MS analysis; type: ADME, organism-based; details: in vivo
[21] = Tmax in Sprague-Dawley rat at 0.5 mg/kg, iv administered as single dose by LC-MS/MS analysis; type: ADME, organism-based; details: in vivo
[22] = Plasma concentration in Sprague-Dawley rat at 2 mg/kg, po administered as single dose measured after 30 mins by LC-MS/MS analysis; type: ADME, organism-based
[23] = Plasma concentration in Sprague-Dawley rat at 2 mg/kg, po administered as single dose measured after 1 hr by LC-MS/MS analysis; type: ADME, organism-based
[24] = Plasma concentration in Sprague-Dawley rat at 2 mg/kg, po administered as single dose measured after 2 hrs by LC-MS/MS analysis; type: ADME, organism-based
[25] = Plasma concentration in Sprague-Dawley rat at 2 mg/kg, po administered as single dose measured after 4 hrs by LC-MS/MS analysis; type: ADME, organism-based
[26] = Plasma concentration in Sprague-Dawley rat at 2 mg/kg, po administered as single dose measured after 6 hrs by LC-MS/MS analysis; type: ADME, organism-based
[27] = Plasma concentration in Sprague-Dawley rat at 2 mg/kg, po administered as single dose measured after 8 hrs by LC-MS/MS analysis; type: ADME, organism-based
[28] = Plasma concentration in Sprague-Dawley rat at 2 mg/kg, po administered as single dose measured after 9 hrs by LC-MS/MS analysis; type: ADME, organism-based
[29] = Plasma concentration in Sprague-Dawley rat at 0.5 mg/kg, iv administered as single dose measured after 5 mins by LC-MS/MS analysis; type: ADME, organism-based
[30] = Plasma concentration in Sprague-Dawley rat at 0.5 mg/kg, iv administered as single dose measured after 15 mins by LC-MS/MS analysis; type: ADME, organism-based
[31] = Plasma concentration in Sprague-Dawley rat at 0.5 mg/kg, iv administered as single dose measured after 6 hrs by LC-MS/MS analysis; type: ADME, organism-based

Sodium-dependent serotonin transporter (Rattus norvegicus), sequence (P31652 whole entry): as the sequence (P31652 whole entry) above

For `Fc1ccc(N2CCN(CCCc3c[nH]c4ccc(F)cc34)CC2)c(-c2ccccc2)c1`, the inhibition [1] was > 90%, the IC50 [2] was 25 nM and the inhibition [3] was > 90%. For the same compound, the Ki [4] was 28 nM, the inhibition [5] was > 90% and the Ki [6] was 3.3 nM. The microsomal CLint at 1 µM [7] was 29.8 µL/min/mg, the Activity (Mus musculus [8]) was 27% and the Activity (Mus musculus [9]) was “Dose-dependent effect”. The IC50 [10] was 16700 nM, the Activity (Mus musculus [11]) was “Dose-dependent effect” and the Activity (Mus musculus [12]) was 20%. For the same compound, the AUC(0-t) [13] was 536 ng·h/mL, the MRT last [14] was 4.3 h and the Vd/F [15] was 17.1 L/kg. The CL/F [16] was 40 mL/min/kg, the half-life [17] was 6.1 h and the Cmax [18] was 86.7 ng/mL. It also gave a bioavailability [19] of 68.5%, an AUC(0-t) [20] of 287 ng·h/mL and a Vz/F (Rattus norvegicus) of 7.4 L/kg. The Tmax [21] was 6 min, the concentration at 0.5 h [22] was 58.3 ng/mL and the concentration at 1 h [23] was 72.8 ng/mL. It also gave a concentration at 2 h [24] of 76.7 ng/mL, a concentration at 4 h [25] of 60.7 ng/mL and a concentration at 6 h [26] of 64.7 ng/mL. The concentration at 8 h [27] was 47.4 ng/mL, the concentration at 9 h [28] was 34.9 ng/mL and the concentration at 5 min [29] was 342 ng/mL. The concentration at […] [30] was 149 ng/mL and the concentration at 6 h [31] was 12.4 ng/mL.

Source: ChEMBL document CHEMBL4251632, “Synthesis and antidepressant-like activity of novel aralkyl piperazine derivatives targeting SSRI/5-HT1A/5-HT7” (Eur J Med Chem, 2018)
